Activity calls are given as the source filed them.
Tests used:
[1] = target: 1-acylglycerol-3-phosphate O-acyltransferase ABHD5/Perilipin-5 (Homo sapiens, UniProt Q00G26+Q8WTS1); assay: Luminescence-based biochemical high throughput dose response assay for inhibitors of the interaction of the lipase co-activator protein, abhydrolase domain containing 5 (ABHD5) with perilipin-5 (MLDP; PLIN5) (2K validation set). [Related pubchem assays (depositor defined):AID493035, AID493241]
[2] = target: Perilipin-1/ABHD5 (Homo sapiens, UniProt O60240+Q8WTS1); assay: Luminescence-based biochemical high throughput dose response assay for inhibitors of the interaction of the lipase co-activator protein, abhydrolase domain containing 5 (ABHD5) with perilipin-1 (PLIN1) (2K validation set). [Related pubchem assays (depositor defined):AID493027, AID493057]
[3] = target: Heat shock protein HSP 90-alpha (Homo sapiens, UniProt P07900); type: functional, organism-based
[4] = NIH-3T3 fibroblast cytotoxicity, dose response, cytotoxicity control, cell-based, fluorescence, Alamar Blue, secondary assay (AID 2327); type: functional;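 further: NIH-3T3 mouse fibroblasts cultured with fluconazole at 8 µg/mL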
[5] = C. albicans growth with fluconazole, confirmation, fluorescence, retest (AID 2467); type: functional, cell-based
[6] = target: T1, Serine/threonine-protein phosphatase (Candida dubliniensis (strain CD36 / CBS 7987 / NCPF 3949 / NRRLY-17841) (Yeast), UniProt B9W6M3); assay: calcineurin pathway inhibitors in yeast reporter, dose response, S. cerevisiae, CDRE-lacZ, luminescence, secondary (AID 2388); type: functional, cell-based;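 further: yeast reporter cells carrying a calcineurin-responsive lacZ construct stimulated with calcium chloride; luminescent beta-galactosidase reporter signal in whole cells rather than isolated phosphatase activity; potency for inhibition where a drop in reporter signal means calcineurin blockade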
T1 sequence (B9W6M3 whole entry): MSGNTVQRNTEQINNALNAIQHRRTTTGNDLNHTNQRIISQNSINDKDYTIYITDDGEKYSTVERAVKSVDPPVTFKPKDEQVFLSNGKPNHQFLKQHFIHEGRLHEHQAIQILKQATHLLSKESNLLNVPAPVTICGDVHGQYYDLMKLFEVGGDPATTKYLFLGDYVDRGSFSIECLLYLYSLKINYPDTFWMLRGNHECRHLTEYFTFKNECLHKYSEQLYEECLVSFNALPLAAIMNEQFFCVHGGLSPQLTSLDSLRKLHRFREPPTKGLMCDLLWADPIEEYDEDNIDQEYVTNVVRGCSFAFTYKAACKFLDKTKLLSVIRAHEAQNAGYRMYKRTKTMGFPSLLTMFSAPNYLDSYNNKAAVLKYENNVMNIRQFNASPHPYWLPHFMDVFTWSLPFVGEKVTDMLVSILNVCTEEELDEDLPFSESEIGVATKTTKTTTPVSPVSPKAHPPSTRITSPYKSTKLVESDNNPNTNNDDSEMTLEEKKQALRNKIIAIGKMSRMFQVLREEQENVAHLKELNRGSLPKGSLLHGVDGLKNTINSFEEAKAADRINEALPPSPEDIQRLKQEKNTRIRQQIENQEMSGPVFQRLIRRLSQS

[7] = Cytotoxicity screening for potential Inhibitors of Bacterial Capsule Biogenesis. [Related pubchem assays (depositor defined):AID488970]; type: functional
[8] = target: ATP-dependent molecular chaperone HSP82 (Candida albicans (strain WO-1) (Yeast), UniProt C4YTQ8); assay: loss of DOC-induced GRE-beta-galactosidase reporter signal, dose response, Hsp90 inhibitor project, S. cerevisiae, luminescence (AID 2400); type: functional, cell-based;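 further: beta-galactosidase luminescence from glucocorticoid response element reporter as proxy for Hsp90 function; inhibitor potency where signal loss means Hsp90 inhibition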
Chain of ATP-dependent molecular chaperone HSP82 (C4YTQ8 whole entry): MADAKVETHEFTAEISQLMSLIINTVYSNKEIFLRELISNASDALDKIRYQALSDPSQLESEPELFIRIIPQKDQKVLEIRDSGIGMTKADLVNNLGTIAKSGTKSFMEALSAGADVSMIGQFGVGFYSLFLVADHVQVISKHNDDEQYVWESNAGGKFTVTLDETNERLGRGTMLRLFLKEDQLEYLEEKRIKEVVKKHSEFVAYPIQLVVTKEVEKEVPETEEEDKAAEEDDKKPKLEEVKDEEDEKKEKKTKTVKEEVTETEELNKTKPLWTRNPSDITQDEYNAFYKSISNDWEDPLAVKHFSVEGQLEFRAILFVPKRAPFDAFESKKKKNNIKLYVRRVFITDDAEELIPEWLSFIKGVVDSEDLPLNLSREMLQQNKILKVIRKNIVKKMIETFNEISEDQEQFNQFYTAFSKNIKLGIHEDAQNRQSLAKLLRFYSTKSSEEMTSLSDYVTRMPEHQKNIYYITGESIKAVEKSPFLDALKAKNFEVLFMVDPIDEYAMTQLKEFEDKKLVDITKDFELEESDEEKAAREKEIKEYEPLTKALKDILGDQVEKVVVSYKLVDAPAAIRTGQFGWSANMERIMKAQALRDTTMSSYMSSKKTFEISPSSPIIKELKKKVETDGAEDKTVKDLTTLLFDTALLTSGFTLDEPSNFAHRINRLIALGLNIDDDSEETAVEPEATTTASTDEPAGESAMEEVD

[9] = target: T2, Voltage-gated N-type calcium channel alpha-1B subunit/Amyloid beta A4 precursor protein-binding family A member 1 (Homo sapiens, UniProt Q00975+Q02410); assay: disruptors of Mint-PDZ/N-type channel peptide interaction – biochemical, HTRF, set 2, SAR follow-up (AID 434980); type: functional
T2 sequence (Q00975 whole entry): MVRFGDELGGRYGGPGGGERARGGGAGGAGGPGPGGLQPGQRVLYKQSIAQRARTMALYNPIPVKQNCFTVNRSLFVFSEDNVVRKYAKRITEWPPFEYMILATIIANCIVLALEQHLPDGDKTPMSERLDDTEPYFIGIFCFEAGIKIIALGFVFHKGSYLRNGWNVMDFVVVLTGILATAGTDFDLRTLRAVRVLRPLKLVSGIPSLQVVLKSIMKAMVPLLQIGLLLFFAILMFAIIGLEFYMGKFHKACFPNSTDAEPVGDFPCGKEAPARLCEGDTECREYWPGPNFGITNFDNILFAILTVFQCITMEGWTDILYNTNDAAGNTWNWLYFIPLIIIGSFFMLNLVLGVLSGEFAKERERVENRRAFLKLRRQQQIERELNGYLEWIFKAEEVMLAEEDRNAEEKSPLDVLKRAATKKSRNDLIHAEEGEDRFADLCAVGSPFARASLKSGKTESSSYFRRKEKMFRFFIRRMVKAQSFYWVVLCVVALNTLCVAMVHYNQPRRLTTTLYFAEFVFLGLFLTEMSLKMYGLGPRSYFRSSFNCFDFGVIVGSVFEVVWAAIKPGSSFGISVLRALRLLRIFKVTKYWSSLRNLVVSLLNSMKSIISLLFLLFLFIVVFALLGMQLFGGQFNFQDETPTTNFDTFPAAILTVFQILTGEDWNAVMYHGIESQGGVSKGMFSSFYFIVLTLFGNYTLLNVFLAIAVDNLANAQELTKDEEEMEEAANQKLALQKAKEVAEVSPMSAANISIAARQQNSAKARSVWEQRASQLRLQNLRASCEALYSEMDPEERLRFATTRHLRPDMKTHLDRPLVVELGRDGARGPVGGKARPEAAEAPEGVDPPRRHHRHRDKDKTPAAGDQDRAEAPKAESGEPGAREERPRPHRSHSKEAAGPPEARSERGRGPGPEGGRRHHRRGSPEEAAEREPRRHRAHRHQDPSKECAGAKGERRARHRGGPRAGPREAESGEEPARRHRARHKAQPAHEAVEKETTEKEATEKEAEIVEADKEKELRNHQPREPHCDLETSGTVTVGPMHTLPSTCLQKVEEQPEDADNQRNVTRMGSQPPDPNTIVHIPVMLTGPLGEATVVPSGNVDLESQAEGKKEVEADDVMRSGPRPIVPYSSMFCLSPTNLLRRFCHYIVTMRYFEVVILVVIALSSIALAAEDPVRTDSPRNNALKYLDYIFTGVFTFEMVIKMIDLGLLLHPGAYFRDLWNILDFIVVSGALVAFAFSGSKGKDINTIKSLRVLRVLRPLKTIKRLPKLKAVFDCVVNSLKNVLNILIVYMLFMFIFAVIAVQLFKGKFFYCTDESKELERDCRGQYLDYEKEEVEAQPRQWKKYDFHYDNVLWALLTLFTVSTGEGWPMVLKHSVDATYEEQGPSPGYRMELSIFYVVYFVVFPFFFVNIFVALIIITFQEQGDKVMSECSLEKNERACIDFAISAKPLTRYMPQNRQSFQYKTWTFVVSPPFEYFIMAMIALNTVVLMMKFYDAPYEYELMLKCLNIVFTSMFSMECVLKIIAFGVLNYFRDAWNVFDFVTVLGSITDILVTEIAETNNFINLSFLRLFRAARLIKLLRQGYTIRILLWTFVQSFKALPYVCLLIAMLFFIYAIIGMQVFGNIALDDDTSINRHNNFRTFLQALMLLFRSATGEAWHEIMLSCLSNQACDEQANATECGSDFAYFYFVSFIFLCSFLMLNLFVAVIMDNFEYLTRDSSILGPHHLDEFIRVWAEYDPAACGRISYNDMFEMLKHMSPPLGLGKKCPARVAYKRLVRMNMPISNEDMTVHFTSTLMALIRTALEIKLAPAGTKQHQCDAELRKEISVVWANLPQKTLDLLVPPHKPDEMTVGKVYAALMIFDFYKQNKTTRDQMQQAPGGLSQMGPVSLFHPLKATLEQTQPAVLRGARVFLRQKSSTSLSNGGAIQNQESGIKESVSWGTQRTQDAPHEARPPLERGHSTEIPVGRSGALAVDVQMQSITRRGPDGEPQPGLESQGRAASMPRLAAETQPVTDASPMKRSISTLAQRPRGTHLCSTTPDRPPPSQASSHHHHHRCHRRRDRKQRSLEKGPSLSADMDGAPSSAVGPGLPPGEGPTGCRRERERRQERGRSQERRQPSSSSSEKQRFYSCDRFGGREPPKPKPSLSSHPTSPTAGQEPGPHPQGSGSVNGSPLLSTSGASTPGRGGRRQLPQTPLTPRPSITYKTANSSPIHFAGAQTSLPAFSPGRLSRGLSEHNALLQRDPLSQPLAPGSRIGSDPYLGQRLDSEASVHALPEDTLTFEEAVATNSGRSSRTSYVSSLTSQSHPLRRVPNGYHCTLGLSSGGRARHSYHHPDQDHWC
T2 sequence (Q02410 whole entry): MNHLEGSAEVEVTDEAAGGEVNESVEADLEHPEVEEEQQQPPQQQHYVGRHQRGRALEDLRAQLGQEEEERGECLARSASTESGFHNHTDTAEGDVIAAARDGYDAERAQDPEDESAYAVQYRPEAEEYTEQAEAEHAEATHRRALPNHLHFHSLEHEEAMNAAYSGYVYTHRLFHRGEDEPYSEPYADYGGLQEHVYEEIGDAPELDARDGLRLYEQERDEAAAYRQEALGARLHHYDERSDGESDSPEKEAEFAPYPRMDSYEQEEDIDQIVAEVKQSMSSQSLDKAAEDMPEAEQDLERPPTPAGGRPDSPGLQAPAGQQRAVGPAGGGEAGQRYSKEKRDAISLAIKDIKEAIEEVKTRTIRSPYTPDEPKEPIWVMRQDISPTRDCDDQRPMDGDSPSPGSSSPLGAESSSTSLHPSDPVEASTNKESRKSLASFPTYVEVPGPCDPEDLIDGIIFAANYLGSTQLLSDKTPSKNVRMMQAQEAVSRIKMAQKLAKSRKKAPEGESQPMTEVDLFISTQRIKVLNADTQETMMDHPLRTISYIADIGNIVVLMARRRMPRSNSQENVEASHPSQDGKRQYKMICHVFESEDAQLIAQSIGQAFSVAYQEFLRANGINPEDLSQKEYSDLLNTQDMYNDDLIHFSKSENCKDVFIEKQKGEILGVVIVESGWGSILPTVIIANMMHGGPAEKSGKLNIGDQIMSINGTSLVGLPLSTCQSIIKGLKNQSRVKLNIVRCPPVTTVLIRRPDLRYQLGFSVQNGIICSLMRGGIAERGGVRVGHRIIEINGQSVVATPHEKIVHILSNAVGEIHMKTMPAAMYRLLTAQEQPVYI

[10] = target: T2, Voltage-gated N-type calcium channel alpha-1B subunit/Amyloid beta A4 precursor protein-binding family A member 1; assay: disruptors of Mint-PDZ/N-type channel peptide interaction – biochemical, HTRF, SAR follow-up (AID 2489); type: functional
[11] = target: Eukaryotic translation initiation factor 4E (Mus musculus, UniProt P63073); assay: eIF4E–eIF4G protein interaction inhibitors, dose response, biochemical, TR-FRET (AID 855); type: functional;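 further: potency for disrupting eIF4E binding to eIF4GI seen as loss of FRET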
Chain of Eukaryotic translation initiation factor 4E (P63073 whole entry): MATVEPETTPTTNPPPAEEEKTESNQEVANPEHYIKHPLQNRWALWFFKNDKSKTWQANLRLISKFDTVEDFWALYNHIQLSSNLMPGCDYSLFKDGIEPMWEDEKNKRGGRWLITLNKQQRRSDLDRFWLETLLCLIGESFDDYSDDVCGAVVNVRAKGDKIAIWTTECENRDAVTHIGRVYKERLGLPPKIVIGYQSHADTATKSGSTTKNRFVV

[12] = target: Potassium voltage-gated channel subfamily KQT member 2 (Rattus norvegicus, UniProt O88943); assay: retigabine-insensitive KCNQ2 potentiators, concentration-response, dose response, cell-based, retigabine-insensitive compounds (AID 2654); type: functional
[13] = target: T3, Coagulation factor XII (Homo sapiens, UniProt P00748); assay: FXIIa inhibitor potency, concentration-response, biochemical (AID 716); type: functional
T3 sequence (P00748 whole entry): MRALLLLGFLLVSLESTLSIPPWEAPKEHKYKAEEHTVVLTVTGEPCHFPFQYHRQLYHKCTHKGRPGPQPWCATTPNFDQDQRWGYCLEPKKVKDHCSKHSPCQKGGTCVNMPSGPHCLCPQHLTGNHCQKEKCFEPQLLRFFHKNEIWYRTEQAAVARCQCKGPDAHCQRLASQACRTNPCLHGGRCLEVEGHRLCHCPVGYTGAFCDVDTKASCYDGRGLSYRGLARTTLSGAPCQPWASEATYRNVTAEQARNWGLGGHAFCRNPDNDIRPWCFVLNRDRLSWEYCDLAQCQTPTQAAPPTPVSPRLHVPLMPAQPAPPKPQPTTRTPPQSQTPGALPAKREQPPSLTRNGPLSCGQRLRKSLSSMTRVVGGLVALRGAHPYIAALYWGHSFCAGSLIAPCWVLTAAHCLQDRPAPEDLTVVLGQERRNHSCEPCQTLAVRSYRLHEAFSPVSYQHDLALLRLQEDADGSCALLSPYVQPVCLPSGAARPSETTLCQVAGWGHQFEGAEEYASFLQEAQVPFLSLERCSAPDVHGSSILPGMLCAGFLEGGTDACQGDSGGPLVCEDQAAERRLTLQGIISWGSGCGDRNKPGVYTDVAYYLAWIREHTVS

[14] = inhibition of K1F phage lysis, E. coli UTI89, bacterial capsule biogenesis inhibitors, alamar blue (AID 488966); type: functional
[15] = THP-1 cell cytotoxicity, dose response, cytotoxicity control for non-replicating M. tuberculosis project (AID 489025); type: functional
[16] = HepG2 cell cytotoxicity, dose response, cytotoxicity control for non-replicating M. tuberculosis project (AID 489018); type: functional; conditions: Mycobacterium tuberculosis
[17] = Vero E6 cell cytotoxicity, dose response, cytotoxicity control for non-replicating M. tuberculosis project, secondary assay (AID 492998); type: functional, VeroE6; conditions: Vero C1008
[18] = cells; type: functional
[19] = test system: Saccharomyces cerevisiae; assay: NALP1 inhibitor project selectivity study, Caspase-1/ASC signal blockade IC50 in S. cerevisiae (AID 488863); type: functional, organism-based
[20] = target: NACHT, LRR and PYD domains-containing protein 1 (Homo sapiens, UniProt Q9C000); assay: NALP1 inhibitors in yeast, dose response, luminescent (AID 488860); type: functional
[21] = target: NACHT, LRR and PYD domains-containing protein 3 (Homo sapiens, UniProt Q96P20); assay: NALP3 inhibitors in yeast, dose response, luminescent (AID 488799); type: functional
[22] = target: Voltage-dependent T-type calcium channel subunit alpha-1H (Homo sapiens, UniProt O95180); assay: Cav3.2 T-type channel inhibitors, cell-based, synthetic library set 1, calcium flux (AID 493022); type: functional
[23] = target: Melanin-concentrating hormone receptor 1 (Homo sapiens, UniProt Q99705); assay: Late-stage fluorescence-based counterscreen for antagonists of the G-protein coupled receptor 7 (GPR7): cell-based dose response assay to identify antagonists of the melanin-concentrating hormone receptor 1 (MCHR1). [Related pubchem assays (depositor defined):AID1861, AID1880, AID1952, AID2148, AID2251, AID2257, AID485339]; type: functional;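 further: stimulated with 30 nM MCH peptide agonist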
Chain of Melanin-concentrating hormone receptor 1 (Q99705 whole entry): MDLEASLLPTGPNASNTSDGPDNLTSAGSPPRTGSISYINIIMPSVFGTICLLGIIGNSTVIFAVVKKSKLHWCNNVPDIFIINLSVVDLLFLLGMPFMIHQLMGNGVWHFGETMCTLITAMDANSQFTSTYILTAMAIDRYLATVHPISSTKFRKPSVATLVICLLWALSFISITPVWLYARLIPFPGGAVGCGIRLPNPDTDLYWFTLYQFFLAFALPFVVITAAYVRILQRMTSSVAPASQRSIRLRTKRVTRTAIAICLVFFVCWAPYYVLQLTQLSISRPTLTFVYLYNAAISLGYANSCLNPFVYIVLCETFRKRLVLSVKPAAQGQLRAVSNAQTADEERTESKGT

[24] = target: T4, Neuropeptides B/W receptor type 1 (Homo sapiens, UniProt P48145); assay: GPR7 antagonist potency, late-stage follow-up, cell-based, fluorescence, dose response (AID 463251); type: functional
T4 sequence (P48145 whole entry): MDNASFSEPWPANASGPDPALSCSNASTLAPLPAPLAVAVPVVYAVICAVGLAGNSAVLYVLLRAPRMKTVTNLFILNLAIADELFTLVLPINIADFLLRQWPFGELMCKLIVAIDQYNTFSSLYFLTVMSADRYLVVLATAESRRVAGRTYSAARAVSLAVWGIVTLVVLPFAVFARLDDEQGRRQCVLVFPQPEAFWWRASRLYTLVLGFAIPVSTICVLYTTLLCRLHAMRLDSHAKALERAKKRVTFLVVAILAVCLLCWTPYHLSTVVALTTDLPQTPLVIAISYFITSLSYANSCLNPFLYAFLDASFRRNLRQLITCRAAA

[25] = cytotoxicity in NIH/3T3 mouse fibroblasts, dose response, cytotoxicity control, cell-based, mouse embryonic fibroblasts, dry powder, set 2 (AID 493247); type: functional; conditions: Fibroblast
[26] = test system: Trypanosoma cruzi; assay: growth inhibition of intracellular Trypanosoma cruzi, dose response, cell-based, plate reader, dry powder, set 3 (AID 493197); type: functional
[27] = target: Protein Rev (Human immunodeficiency virus type 1 group M subtype B (isolate HXB2)(HIV-1), UniProt P04618); assay: inhibitors of Rev binding to RRE RNA, dose response, biochemical, fluorescence polarization, HIV-1 (AID 434976); set-up: species or system Human immunodeficiency virus 1
Chain of Protein Rev (P04618 whole entry): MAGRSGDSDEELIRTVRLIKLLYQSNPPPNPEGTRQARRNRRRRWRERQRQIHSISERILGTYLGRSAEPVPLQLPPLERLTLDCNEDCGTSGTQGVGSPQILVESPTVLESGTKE

[28] = target: Female germline-specific tumor suppressor gld-1 (Caenorhabditis elegans, UniProt Q17339); assay: inhibitors of GLD-1 binding to TGE RNA, dose response, biochemical, fluorescence polarization, C. elegans (AID 2802);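 further: fluorescence polarization of labeled TGE RNA bound by purified gld-1 protein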
Chain of Female germline-specific tumor suppressor gld-1 (Q17339 whole entry): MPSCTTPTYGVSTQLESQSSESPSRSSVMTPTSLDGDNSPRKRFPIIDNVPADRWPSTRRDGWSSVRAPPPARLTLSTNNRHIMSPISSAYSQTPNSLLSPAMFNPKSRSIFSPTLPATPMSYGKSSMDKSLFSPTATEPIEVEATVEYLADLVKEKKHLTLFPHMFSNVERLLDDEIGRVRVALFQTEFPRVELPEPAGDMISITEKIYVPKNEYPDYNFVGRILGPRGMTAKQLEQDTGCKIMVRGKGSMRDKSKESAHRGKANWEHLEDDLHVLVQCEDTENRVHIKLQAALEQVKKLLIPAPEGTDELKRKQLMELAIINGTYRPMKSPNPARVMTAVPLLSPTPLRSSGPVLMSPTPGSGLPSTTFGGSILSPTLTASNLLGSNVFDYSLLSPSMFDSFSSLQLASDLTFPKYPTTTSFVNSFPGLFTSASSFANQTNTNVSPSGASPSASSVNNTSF

Question: What does the source list for `CC(C)N1C(=O)/C(=C\c2nc(O)c3ccccc3n2)c2ccccc21`?
Answer: IC50 [1]: 7.59 µM (active); IC50 [2]: 6.84 µM (active); AC50 [3]: 5.37 µM (active)

Question: Which results are given for `O=C(NCc1cc([N+](=O)[O-])ccc1O)c1cccnc1Sc1ccccc1Cl`?
Answer: EC50 [4]: > 150 µM (inactive); EC50 [5]: 0.848 µM (active); EC50 [6]: > 180 µM (inactive); CC50 [7]: > 100 µM (active); EC50 [8]: > 150 µM (inactive)

Question: Which IC50 [9] does the source give for `CC(/C=C/c1ccco1)=NNC(=O)c1cccnc1` here?
Answer: 6.99 µM (active)

Question: What about the IC50 [10] of the same molecule?
Answer: 21.4 µM (active)

Question: With `COc1ccc(-n2c(Cc3cccn3C)nnc2SCC(=O)Nc2cccc(F)c2)cc1` as the molecule, how does the IC50 [11] read?
Answer: > 64 µM (inactive)

Question: Which EC50 [12] does the source give for `S=C(Nc1cccnc1)Nc1cccc(Cl)c1` here?
Answer: 9.33 µM (active)

Question: For `CCCS(=O)(=O)N1CCN(c2ccccc2F)CC1`, which IC50 [13] is on record?
Answer: > 50 µM (inactive)

Question: For `CC12CC3CC(C)(C1)CC(CN)(C3)C2`, which IC50 [14] is on record?
Answer: > 300 µM (active)

Question: Which CC50 [15] does the source give for `O=C(NNC(=O)c1ccccn1)c1cccc([N+](=O)[O-])c1` here?
Answer: 26.7 µM (active)

Question: And the CC50 [16]?
Answer: > 20 µM (active)

Question: What about the CC50 [17] of the same molecule?
Answer: 9.98 µM (active)

Question: And the IC50 [18]?
Answer: 10.9 µM (active)

Question: For `Cc1ccc(NC(=O)CNc2ccc(OC(C)C)cc2)cc1`, which IC50 [19] is on record?
Answer: 42.6 µM (active)

Question: And the IC50 [20]?
Answer: 22.6 µM (active)

Question: With `COc1c(OC(C)=O)c(=O)n2c3ccccc3c3ccnc1c32` as the molecule, how does the IC50 [21] read?
Answer: 1.58 µM (active)

Question: Which EC50 [22] does the source give for `CC(Oc1ccccc1)C(=O)Nc1nnc(-c2ccc(F)cc2)o1` (stereo not drawn) here?
Answer: 10 µM (active)

Question: What does the source list for `O=C(C1CCCCN1Cc1ccc(Cl)c(Cl)c1)N1CCN(c2ccc([N+](=O)[O-])cc2)CC1` (stereo not drawn)?
Answer: IC50 [23]: 4.6 µM (active); IC50 [24]: 2.3 µM (active)

Question: What does the source list for `O=C(COc1ccc2ccccc2c1)N/N=C/c1ccc([N+](=O)[O-])o1`?
Answer: AC50 [25]: 22.3 µM (active); AC50 [26]: 0.837 µM (active)

Question: With `C=CCc1cccc(/C=N/n2c(C)nnc2C)c1O` as the molecule, how does the IC50 [27] read?
Answer: > 8.39 µM (active)

Question: What about the IC50 [28] of the same molecule?
Answer: 8.19 µM (active)

— ChEMBL document CHEMBL1201862, “PubChem BioAssay data set” (2004)
